# Laboratory results as given in the supplement of paper PMC10307832.
# Columns and labels:
# Assay in all cases: relative viability (nuclei count vs DMSO), 5 days (fraction); higher = more cells survive
# AZD8055 + Palbociclib = compound: COc1ccc(-c2ccc3c(N4CCOC[C@@H]4C)nc(N4CCOC[C@@H]4C)nc3n2)cc1CO [AZD8055] + CC(=O)c1c(C)c2cnc(Nc3ccc(N4CCNCC4)cn3)nc2n(C2CCCC2)c1=O [Palbociclib] (partner 0.5 µM)
# In short: (§1)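 Relative viability equals treated-well nuclei counts divided by vehicle-well nuclei counts. Counts came from 4× images of lung cancer cell lines grown in 1536-well plates for 5 days after pin-tool dosing on the day after seeding. Dosing used one drug alone or a fixed anchor-drug dose plus five library-drug doses (not always all listed) in √10 steps, and values are medians of duplicate plates.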
# AZD8055 + Pictilisib = compound: COc1ccc(-c2ccc3c(N4CCOC[C@@H]4C)nc(N4CCOC[C@@H]4C)nc3n2)cc1CO [AZD8055] + CS(=O)(=O)N1CCN(Cc2cc3nc(-c4cccc5[nH]ncc45)nc(N4CCOCC4)c3s2)CC1 [Pictilisib] (partner 1 µM)
# In short: as §1
# AZD8055 + OSI-027 = compound: COc1ccc(-c2ccc3c(N4CCOC[C@@H]4C)nc(N4CCOC[C@@H]4C)nc3n2)cc1CO [AZD8055] + COc1cccc2cc(-c3nc([C@H]4CC[C@H](C(=O)O)CC4)n4ncnc(N)c34)[nH]c12 [OSI-027] (partner 0.5 µM)
# In short: as §1
# AZD8055 + Luminespib = compound: COc1ccc(-c2ccc3c(N4CCOC[C@@H]4C)nc(N4CCOC[C@@H]4C)nc3n2)cc1CO [AZD8055] + CCNC(=O)c1noc(-c2cc(C(C)C)c(O)cc2O)c1-c1ccc(CN2CCOCC2)cc1 [Luminespib] (partner 0.01 µM)
# In short: as §1
Cell Line,relative viability (AZD8055 + Palbociclib; first compound 0.01 µM),relative viability (AZD8055 + Palbociclib; first compound 0.03162 µM),relative viability (AZD8055 + Palbociclib; first compound 0.1 µM),relative viability (AZD8055 + Palbociclib; first compound 0.3162 µM),relative viability (AZD8055 + Palbociclib; first compound 1 µM),relative viability (AZD8055 + Pictilisib; first compound 0.01 µM),relative viability (AZD8055 + Pictilisib; first compound 0.03162 µM),relative viability (AZD8055 + Pictilisib; first compound 0.1 µM),relative viability (AZD8055 + Pictilisib; first compound 0.3162 µM),relative viability (AZD8055 + Pictilisib; first compound 1 µM),relative viability (AZD8055 + OSI-027; first compound 0.01 µM),relative viability (AZD8055 + OSI-027; first compound 0.03162 µM),relative viability (AZD8055 + OSI-027; first compound 0.1 µM),relative viability (AZD8055 + OSI-027; first compound 0.3162 µM),relative viability (AZD8055 + OSI-027; first compound 1 µM),relative viability (AZD8055 + Luminespib; first compound 0.01 µM),relative viability (AZD8055 + Luminespib; first compound 0.03162 µM),relative viability (AZD8055 + Luminespib; first compound 0.1 µM),relative viability (AZD8055 + Luminespib; first compound 0.3162 µM),relative viability (AZD8055 + Luminespib; first compound 1 µM)
H3255,0.3,0.303,0.314,0.288,0.292,0.518,0.45,0.249,0.277,0.272,0.706,0.572,0.587,0.454,0.423,0.879,0.804,0.845,0.382,0.381
NCI-H650,0.371,0.307,0.273,0.196,0.165,0.905,0.736,0.623,0.307,0.304,0.528,0.492,0.602,0.368,0.344,0.998,0.768,0.691,0.436,0.295
LCLC-103H,0.52,0.48,0.398,0.468,0.421,0.612,0.572,0.546,0.52,0.332,0.444,0.437,0.44,0.356,0.32,0.951,0.762,0.793,0.414,0.271
LOU-NH91,0.531,0.536,0.589,0.552,0.497,0.546,0.542,0.512,0.478,0.491,0.775,0.797,0.66,0.569,0.556,0.349,0.348,0.325,0.282,0.317
NCI-H1650,0.317,0.323,0.254,0.18,0.205,0.551,0.575,0.479,0.393,0.36,0.678,0.776,0.484,0.435,0.39,0.204,0.196,0.206,0.203,0.253
NCI-H3122,0.194,0.197,0.155,0.147,0.117,0.549,0.47,0.337,0.272,0.29,1.09,0.846,0.854,0.323,0.236,0.0869,0.101,0.114,0.0794,0.0854
PC-3 [JPC-3],0.515,0.557,0.516,0.435,0.458,0.616,0.81,0.645,0.633,0.381,0.84,0.742,0.756,0.768,0.566,0.717,0.565,0.693,0.469,0.332
NCI-H1651,0.507,0.472,0.478,0.298,0.253,0.664,0.452,0.433,0.257,0.283,0.871,0.682,0.603,0.32,0.413,0.925,0.798,0.779,0.412,0.313
NCI-H2087,0.212,0.198,0.159,0.113,0.141,1.06,0.704,0.574,0.446,0.328,0.77,0.606,0.577,0.412,0.311,0.171,0.163,0.138,0.124,0.141
